{Cy3} = Cy3 fluorescent dye label
Columns and labels:
streptavidin [1] = molecular target: T1, streptavidin (Streptomyces avidinii, UniProt P22629); test: Force test with reverse pillar pressing, biotin/streptavidin versus desthiobiotin/streptavidin; format: binding
T1 construct: purchased Molecular Probes, Eugene
Method: The polymerized structured and unstructured PDMS plates were cut to a size of 1 cm^2. Then the pieces were exposed to an H2O plasma in a plasma furnace at 2 mbar for 30 s. The oxidized surface was incubated with a solution of 2% aldehyde silane (4-triethoxysilylbutanal, Amchro, Hattersheim, Germany) in 10% H2O and 88% ethanol for 30 minutes. The silanised surface was washed with ethanol and very pure water and blown dry with nitrogen.
The functionalized substrates and pillars were incubated overnight in PBS (phosphate buffered saline; Sigma, St. Louis, USA) with 2% BSA (bovine serum albumin; Roth, Karlsruhe, Germany). In that case BSA binds with its amino groups to the aldehyde groups of the surface. For stabilization purposes the resulting Schiff's bases were reduced with 1% sodium borohydride for 15 minutes. […]
Depending on the respective pillar composition a fluorescence-marked streptavidin-AlexaFluor ? -647 conjugate (Molecular Probes, Eugene) was bound to the substrate or the pillar. […]
The reverse implementation permits evaluation which is independent of the coupling efficiency. […] That assumption is permissible here by virtue of the very similar properties of the binding partners BP1 and BP4 to be compared (for example size) and can also be checked by measurement of fluorescence intensity prior to the pillar pressing procedure. […]

streptavidin [2] = molecular target: T1, streptavidin; test: Differential force test comparing biotin/streptavidin and iminobiotin/streptavidin complexes (pillar pressing); format: binding; conditions: for proportion of streptavidin transferred from the hapten on the substrate to the biotin-coated pillar: pH 10 buffer, 30 minutes contact, Alexa-Fluor-546 marked streptavidin
Source text: Biotin and iminobiotin are bound to a substrate. Fluorescence-marked streptavidin is bound to the immobilized haptens. A plunger or pillar which is coated with biotin is moved towards the substrate in such a way that the biotin which is bound to the pillar can bind the streptavidin coupled by way of the haptens to the substrate. The pillar is then removed again. To conclude, the procedure involves determining which proportion of the streptavidin was transferred from the iminobiotin of the substrate onto the biotin of the pillar and which proportion of the streptavidin was transferred from the biotin of the substrate onto the biotin of the pillar.
20 μl of a solution with 2 mg/100 μl of NHS-PEG-biotin (Shearwater, Huntsville) was incubated under a cover glass for 1 hour on a pillar with an area of 1 cm^2. It was washed with very pure water and blown dry with nitrogen.
A glass object carrier was cleaned by a 100-minute treatment with saturated KOH-ethanol solution. The cleaned surface was incubated with 3% aminosilane (3-aminopropyldimethyl-ethoxysilane; ABCR, Karlsruhe) in 10% H2O and 87% Ethanol for 30 minutes. The silanised surface was washed with very pure water and blown dry with nitrogen. […] The tBoc protective group was then split off with trifluoro-acetic acid. NHS-biotin and NHS-iminobiotin (Sigma, St. Louis) were respectively diluted starting from a 50 mM stock solution in DMSO to give a final concentration of 5 mM with PBS (phosphate buffered saline, Sigma). The attachment of biotin or iminobiotin respectively to the amino-functionalized glass substrate was effected from that solution. That was incubated for one hour in a saturated water atmosphere, washed with very pure water and blown dry with nitrogen.
For the purposes of binding the streptavidin AlexaFluor ? -546 conjugate (Molecular Probes, Eugene), a solution was produced, involving a concentration of 0.1 mg/ml in a glycine/NaOH-buffer (pH 10). The substrate was incubated for 20 minutes with the solution, then washed for 5 minutes in that buffer and blown dry with nitrogen. […]

avidin = avidin (Gallus gallus, UniProt P02701); conditions: AFM force spectrometer, Florin et al. Science 1994; cited from earlier work
Sequence of avidin (P02701 25-152, species assumed): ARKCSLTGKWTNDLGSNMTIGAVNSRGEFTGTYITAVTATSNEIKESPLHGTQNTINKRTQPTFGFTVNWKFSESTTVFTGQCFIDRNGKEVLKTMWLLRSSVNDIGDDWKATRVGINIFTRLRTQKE

[3] = test system: DNA-duplexes with oligo1 and oligo3; test: Differential force test comparing two DNA-duplexes (oligo2 with oligo1 versus oligo2 with oligo3); format: binding; conditions: for Q St = ΔCy3St/ΔCy5St: enrichment of Cy3-oligo2 relative to Cy5-oligo3; for Q Unt = ΔCy3Unt/ΔCy5Unt: depletion of Cy3-oligo2 relative to Cy5-oligo3

T1 sequence (P22629 25-183): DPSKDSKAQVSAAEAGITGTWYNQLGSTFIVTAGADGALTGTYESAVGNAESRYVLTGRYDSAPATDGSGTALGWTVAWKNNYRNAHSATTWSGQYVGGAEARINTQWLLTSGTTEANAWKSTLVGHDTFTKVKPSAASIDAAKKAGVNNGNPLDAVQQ

Molecule | proportion of streptavidin transferred from the hapten on the substrate to the biotin-coated pillar (streptavidin [2]) [%] | unbinding force of the receptor-ligand pair (avidin) [pN] | Q St = ΔCy3St/ΔCy5St ([3]; pillar) | Q Unt = ΔCy3Unt/ΔCy5Unt ([3]; substrate) | also measured
C[C@@H]1NC(=O)N[C@@H]1CCCCCC(=O)O [desthiobiotin] | – | – | – | – | quotient of the transfer to desthiobiotin and the transfer to biotin (streptavidin [1]; average of both tests): 0.18; binding force to streptavidin relative to biotin (streptavidin [1]; reverse pillar pressing): weaker
O=C(O)CCCC[C@@H]1SC[C@@H]2NC(=O)N[C@@H]21 [biotin] | 15 | 160 | – | – | relative strength of the streptavidin-hapten bond (streptavidin [2]; biotin versus iminobiotin, assuming identical coupling efficiency and equal density): stronger
N=C1N[C@H]2[C@H](CS[C@H]2CCCCC(=O)O)N1 [iminobiotin] | 30 | 85±15 | – | – | –
5′TTGCTCCCAGACTCTCTGCTGAAAGTCCCTTTGATAATCGTAACGAGGGGTTATACGCCGTAAAGCCCGGAGA-Cy3 [oligo2a] | – | – | 1.20 ± 0.08 | 0.69±0.09 | unbinding force of the duplex with oligo3, higher than the duplex between oligo 2b and oligo3 ([3]; from QSt and QUnt): at least 500%; QSt = QA St/QB St ([3]; pillar, Experiment 2a relative to reference experiment 2b): 1.97; QA St corr. ([3]; pillar, corrected by factor 0.82): 0.98; QUnt = QA Unt/QB Unt ([3]; substrate, Experiment 2a relative to reference experiment 2b): 1.92; QA Unt corr. ([3]; substrate, corrected by factor 1.39): 0.96
5′ACTCTCTGCTGAAAGTCCCTTTGATAATCGTAACGAGGGGTTATACGCCGTAAAGCCGGAGA-Cy3 (nucleic acid, DNA, 3' {Cy3}, backbone not given here) ACTCTCTGCTGAAAGTCCCTTTGATAATCGTAACGAGGGGTTATACGCCGTAAAGCCGGAGA | – | – | 0.61 ± 0.08 | 0.36±0.08 | –
